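Compound exposure: 48 hours, 5 concentrations, 96-well plates. GI50 marks 50% less growth.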 The source made the active and inactive calls. Rule as the data show it: active = GI50 up to about 1.1 µM and inactive = higher.
Legend:
Assay in all cases: DTP human tumour cell line panel, 48 h
SK-MEL-28 = tested on: SK-MEL-28
Malme-3M = tested on: Malme-3M
SF-539 = tested on: SF-539
OVCAR-3 = tested on: OVCAR-3
TK-10 = tested on: TK-10
CCRF-CEM = tested on: CCRF-CEM
UACC-62 = tested on: UACC-62
UO-31 = tested on: UO-31
RXF 393 = tested on: RXF 393
A549 = tested on: A549
OVCAR-8 = tested on: OVCAR-8
SNB-19 = tested on: SNB-19
786-0 = tested on: 786-0
ACHN = tested on: ACHN
MDA-N = tested on: MDA-N
Hs-578T = tested on: Hs-578T
HCC 2998 = tested on: HCC 2998
HL-60 = tested on: HL-60
M14 = tested on: M14
PC-3 = tested on: PC-3

Structure (SMILES) | GI50 (SK-MEL-28) | GI50 (Malme-3M) | GI50 (SF-539) | GI50 (OVCAR-3) | GI50 (TK-10) | GI50 (CCRF-CEM) | GI50 (UACC-62) | GI50 (UO-31) | GI50 (RXF 393) | GI50 (A549) | GI50 (OVCAR-8) | GI50 (SNB-19) | GI50 (786-0) | GI50 (ACHN) | GI50 (MDA-N) | GI50 (Hs-578T) | GI50 (HCC 2998) | GI50 (HL-60) | GI50 (M14) | GI50 (PC-3)
CCOC(=O)N/N=C(/OCC)c1ccccc1 | > 100 µM (inactive) | > 100 µM (inactive) | > 100 µM (inactive) | > 100 µM (inactive) | > 100 µM (inactive) | > 100 µM (inactive) | > 100 µM (inactive) | > 100 µM (inactive) | > 100 µM (inactive) | > 100 µM (inactive) | > 100 µM (inactive) | > 100 µM (inactive) | > 100 µM (inactive) | > 100 µM (inactive) | > 100 µM (inactive) | > 100 µM (inactive) | > 100 µM (inactive) | > 100 µM (inactive) | – | –
O=C(CCC1CCCCC1)NCc1ccc(C(=O)O)cc1 | > 100 µM (inactive) | > 100 µM (inactive) | > 100 µM (inactive) | > 100 µM (inactive) | > 100 µM (inactive) | 47.1 µM (inactive) | > 100 µM (inactive) | > 100 µM (inactive) | > 100 µM (inactive) | > 100 µM (inactive) | > 100 µM (inactive) | > 100 µM (inactive) | > 100 µM (inactive) | > 100 µM (inactive) | > 100 µM (inactive) | – | > 100 µM (inactive) | – | > 100 µM (inactive) | > 100 µM (inactive)
Fc1cccc(F)c1C1SCc2nc3cc4ccccc4cc3n21 (stereo not drawn) | 49.7 µM (inactive) | 39.2 µM (inactive) | 17.2 µM (inactive) | 15.7 µM (inactive) | 96.6 µM (inactive) | 22.4 µM (inactive) | 23.4 µM (inactive) | – | 28.4 µM (inactive) | 33.3 µM (inactive) | 58.6 µM (inactive) | – | 31.2 µM (inactive) | – | 39 µM (inactive) | – | 23.9 µM (inactive) | – | 29.7 µM (inactive) | 23 µM (inactive)
N#Cc1c(-c2ccccc2)[nH]c(=O)n(C2OC(CO)C(O)C(O)C2O)c1=O (stereo not drawn) | > 100 µM (inactive) | – | > 100 µM (inactive) | > 100 µM (inactive) | > 100 µM (inactive) | > 100 µM (inactive) | > 100 µM (inactive) | > 100 µM (inactive) | > 100 µM (inactive) | > 100 µM (inactive) | > 100 µM (inactive) | > 100 µM (inactive) | > 100 µM (inactive) | > 100 µM (inactive) | – | > 100 µM (inactive) | > 100 µM (inactive) | – | > 100 µM (inactive) | > 100 µM (inactive)
Cc1ccsc1/C=N/Nc1nc2ccccc2s1 | 25.1 µM (inactive) | – | – | 12.9 µM (inactive) | 13.9 µM (inactive) | 15.4 µM (inactive) | 27.9 µM (inactive) | 20.8 µM (inactive) | 6.27 µM (inactive) | 16.3 µM (inactive) | 23 µM (inactive) | 12.8 µM (inactive) | 12.3 µM (inactive) | 14 µM (inactive) | 34.8 µM (inactive) | 23.2 µM (inactive) | 63.2 µM (inactive) | – | 28.1 µM (inactive) | 14.3 µM (inactive)
COc1ccc(/C=C2\CN(C)CC3C2=NN(c2ccccc2)C3c2ccc(OC)cc2)cc1 (stereo not drawn) | > 100 µM (inactive) | 41.7 µM (inactive) | – | > 100 µM (inactive) | 26.1 µM (inactive) | > 100 µM (inactive) | 75 µM (inactive) | > 100 µM (inactive) | 13 µM (inactive) | > 100 µM (inactive) | 67.5 µM (inactive) | 27.2 µM (inactive) | 27.7 µM (inactive) | 77.1 µM (inactive) | > 100 µM (inactive) | 42.8 µM (inactive) | > 100 µM (inactive) | – | 27.2 µM (inactive) | –
CC(NCCN(C)C)C1CCC2C3CCc4cc(O)ccc4C3CCC12C (stereo not drawn) | 2.19 µM (inactive) | 1.68 µM (inactive) | 4.76 µM (inactive) | 1.88 µM (inactive) | 2.72 µM (inactive) | 0.723 µM (active) | 1.93 µM (inactive) | 1.81 µM (inactive) | 1.85 µM (inactive) | 3.65 µM (inactive) | 2.79 µM (inactive) | 3.54 µM (inactive) | 1.83 µM (inactive) | 2 µM (inactive) | – | 4.17 µM (inactive) | – | 2.09 µM (inactive) | 1.67 µM (inactive) | 2.82 µM (inactive)
COc1cc(C2c3cc4c(cc3OC(NN)C2C)OCO4)cc(OC)c1O (stereo not drawn) | 6.75 µM (inactive) | 5.71 µM (inactive) | 11.9 µM (inactive) | 3.66 µM (inactive) | 26.2 µM (inactive) | – | 4.92 µM (inactive) | 19.8 µM (inactive) | 15.3 µM (inactive) | 8.2 µM (inactive) | 16.5 µM (inactive) | 32.5 µM (inactive) | 11.3 µM (inactive) | – | 1.84 µM (inactive) | – | 12.4 µM (inactive) | 2.24 µM (inactive) | 10.4 µM (inactive) | 10.4 µM (inactive)
O=C1CC(CC(=O)C2CCCCC2=O)C(=O)N1 (stereo not drawn) | > 100 µM (inactive) | > 100 µM (inactive) | > 100 µM (inactive) | > 100 µM (inactive) | > 100 µM (inactive) | > 100 µM (inactive) | > 100 µM (inactive) | > 100 µM (inactive) | > 100 µM (inactive) | > 100 µM (inactive) | > 100 µM (inactive) | > 100 µM (inactive) | > 100 µM (inactive) | > 100 µM (inactive) | – | – | > 100 µM (inactive) | > 100 µM (inactive) | > 100 µM (inactive) | –
[O-][S+]1CSSC1 | 27.4 µM (inactive) | 36.7 µM (inactive) | 19.7 µM (inactive) | 17.9 µM (inactive) | 23.7 µM (inactive) | 4.42 µM (inactive) | 10.4 µM (inactive) | 18.7 µM (inactive) | 19.9 µM (inactive) | 33.9 µM (inactive) | 19.6 µM (inactive) | 41.6 µM (inactive) | 20.7 µM (inactive) | 25.1 µM (inactive) | – | – | 23.2 µM (inactive) | 2.56 µM (inactive) | 22.5 µM (inactive) | –
COc1c(O)cc2c(c1O)C1O[C@H](CO)C(O)[C@H](O)[C@H]1OC2=O (stereo partly drawn) | > 100 µM (inactive) | > 100 µM (inactive) | > 100 µM (inactive) | > 100 µM (inactive) | > 100 µM (inactive) | > 100 µM (inactive) | – | – | > 100 µM (inactive) | > 100 µM (inactive) | > 100 µM (inactive) | > 100 µM (inactive) | > 100 µM (inactive) | > 100 µM (inactive) | > 100 µM (inactive) | – | > 100 µM (inactive) | > 100 µM (inactive) | > 100 µM (inactive) | > 100 µM (inactive)
COc1ccc(-c2oc3c(OC)c(OC)c(OC)c(O)c3c(=O)c2OC)cc1O | < 0.01 µM (active) | 0.065 µM (active) | 0.0327 µM (active) | 0.0632 µM (active) | 2.42 µM (inactive) | 0.0135 µM (active) | 0.0481 µM (active) | 0.082 µM (active) | 0.0559 µM (active) | 0.36 µM (active) | 0.341 µM (active) | 0.347 µM (active) | 0.446 µM (active) | 0.0656 µM (active) | – | – | 2.11 µM (inactive) | < 0.01 µM (active) | 0.0592 µM (active) | –
COc1cc(C2C3=C(CCCC3=O)N(c3ccc(C)cc3)C3=C2C(=O)CCC3)c([N+](=O)[O-])cc1OC | 87.3 µM (inactive) | – | 61.1 µM (inactive) | 96.2 µM (inactive) | > 100 µM (inactive) | 40.7 µM (inactive) | 90.4 µM (inactive) | > 100 µM (inactive) | 30 µM (inactive) | 54.5 µM (inactive) | – | > 100 µM (inactive) | 63.1 µM (inactive) | 65.3 µM (inactive) | – | 75.9 µM (inactive) | > 100 µM (inactive) | 45.4 µM (inactive) | > 100 µM (inactive) | > 100 µM (inactive)
O=[N+]([O-])c1ccc(/C=C/c2csnn2)cc1 | > 100 µM (inactive) | > 100 µM (inactive) | > 100 µM (inactive) | > 100 µM (inactive) | > 100 µM (inactive) | > 100 µM (inactive) | > 100 µM (inactive) | > 100 µM (inactive) | > 100 µM (inactive) | > 100 µM (inactive) | > 100 µM (inactive) | > 100 µM (inactive) | > 100 µM (inactive) | > 100 µM (inactive) | – | – | > 100 µM (inactive) | > 100 µM (inactive) | > 100 µM (inactive) | –
OCC(O)COCn1cc(Cn2ncc3c(O)ncnc32)nn1 (stereo not drawn) | > 100 µM (inactive) | – | > 100 µM (inactive) | > 100 µM (inactive) | > 100 µM (inactive) | > 100 µM (inactive) | > 100 µM (inactive) | > 100 µM (inactive) | – | > 100 µM (inactive) | > 100 µM (inactive) | > 100 µM (inactive) | > 100 µM (inactive) | > 100 µM (inactive) | > 100 µM (inactive) | – | > 100 µM (inactive) | > 100 µM (inactive) | > 100 µM (inactive) | > 100 µM (inactive)
O=C(/C=C/c1ccc(Cl)c(Cl)c1)c1ccccc1Cl | 8.95 µM (inactive) | 16.6 µM (inactive) | 3.63 µM (inactive) | 9.27 µM (inactive) | 21.6 µM (inactive) | 6.67 µM (inactive) | 12.8 µM (inactive) | 14.5 µM (inactive) | 17.2 µM (inactive) | 15.8 µM (inactive) | 6 µM (inactive) | 10.3 µM (inactive) | 5.32 µM (inactive) | 15.3 µM (inactive) | – | – | 10.5 µM (inactive) | 6.61 µM (inactive) | 6.24 µM (inactive) | –

— ChEMBL document CHEMBL1201862, “PubChem BioAssay data set” (2004)
